From ChEMBL document CHEMBL2413012, “Inhibition of tumor-associated human carbonic anhydrase isozymes IX and XII by a new class of substituted-phenylacetamido aromatic sulfonamides” (Bioorg Med Chem, 2013)

biological target: Carbonic anhydrase 12 (Homo sapiens, UniProt O43570); experiment: Inhibition of human recombinant carbonic anhydrase 12 preincubated for 10 mins by CO2 hydration stopped-flow assay
Sequence (O43570 whole entry): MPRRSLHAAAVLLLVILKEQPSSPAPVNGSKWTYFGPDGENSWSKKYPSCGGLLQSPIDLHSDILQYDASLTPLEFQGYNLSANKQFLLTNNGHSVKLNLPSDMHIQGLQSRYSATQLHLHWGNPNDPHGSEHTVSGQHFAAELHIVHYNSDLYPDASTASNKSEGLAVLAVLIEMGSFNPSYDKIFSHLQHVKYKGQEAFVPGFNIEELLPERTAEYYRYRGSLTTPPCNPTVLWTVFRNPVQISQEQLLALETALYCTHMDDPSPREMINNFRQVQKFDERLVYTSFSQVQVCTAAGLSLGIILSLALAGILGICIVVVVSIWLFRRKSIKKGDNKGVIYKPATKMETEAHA

Structure (SMILES)	Ki [nM]
NS(=O)(=O)c1ccc(CCNC(=O)Cc2ccc(Cl)cc2)cc1	3.4
COc1ccc(CC(=O)NCCc2ccc(S(N)(=O)=O)cc2)cc1	0.43

biological target: Carbonic anhydrase 9 (Homo sapiens, UniProt Q16790); experiment: Inhibition of human recombinant carbonic anhydrase 9 preincubated for 10 mins by CO2 hydration stopped-flow assay

Structure (SMILES)	Ki [nM]
NS(=O)(=O)c1ccc(CCNC(=O)Cc2ccc(F)cc2)cc1	6.5
COc1ccc(CC(=O)Nc2ccc(S(N)(=O)=O)cc2)cc1	0.32
NS(=O)(=O)c1ccc(NC(=O)Cc2ccc(F)cc2)c(Br)c1	5
NS(=O)(=O)c1nnc(NC(=O)Cc2ccccc2Br)s1	0.61
NS(=O)(=O)c1ccc(NC(=O)Cc2ccccc2Br)c(Br)c1	0.52
COc1ccc(CC(=O)Nc2ccc(S(N)(=O)=O)cc2Br)cc1	0.62
NS(=O)(=O)c1ccc(CCNC(=O)Cc2ccc(Cl)cc2)cc1	1.2
COc1ccc(CC(=O)Nc2nnc(S(N)(=O)=O)s2)cc1	0.31
NS(=O)(=O)c1ccc(NC(=O)Cc2ccc(F)cc2)c(F)c1	7.2
NS(=O)(=O)c1ccc(NC(=O)Cc2ccc(Cl)cc2)c(Br)c1	1.2
COc1ccc(CC(=O)NCCc2ccc(S(N)(=O)=O)cc2)cc1	0.25
NS(=O)(=O)c1ccc(CCNC(=O)Cc2ccccc2Br)cc1	0.57
NS(=O)(=O)c1ccc(NC(=O)Cc2ccc(F)cc2)cc1	4.7
NS(=O)(=O)c1ccc(NC(=O)Cc2ccccc2Br)c(F)c1	1.6
NS(=O)(=O)c1ccc(NC(=O)Cc2ccc(Cl)cc2)cc1	72.5
NS(=O)(=O)c1nnc(NC(=O)Cc2ccc(F)cc2)s1	2.1
NS(=O)(=O)c1ccc(NC(=O)Cc2ccccc2Br)cc1	0.44
NS(=O)(=O)c1ccc(NC(=O)Cc2ccc(F)cc2)c(Cl)c1	10.1
NS(=O)(=O)c1ccc(CNC(=O)Cc2ccc(Cl)cc2)cc1	0.53
COc1ccc(CC(=O)Nc2ccc(S(N)(=O)=O)cc2Cl)cc1	0.41
COc1ccc(CC(=O)NCc2ccc(S(N)(=O)=O)cc2)cc1	0.45
COc1ccc(CC(=O)Nc2ccc(S(N)(=O)=O)cc2F)cc1	1.8
NS(=O)(=O)c1ccc(NC(=O)Cc2ccc(Cl)cc2)c(Cl)c1	6.3
NS(=O)(=O)c1nnc(NC(=O)Cc2ccc(Cl)cc2)s1	1.3
NS(=O)(=O)c1ccc(CNC(=O)Cc2ccccc2Br)cc1	1
NS(=O)(=O)c1ccc(NC(=O)Cc2ccc(Cl)cc2)c(F)c1	7.8
NS(=O)(=O)c1ccc(NC(=O)Cc2ccccc2Br)c(Cl)c1	0.74
